Laboratory results reported in patent US10174067B2, “Type of cytidine derivative and application thereof” (priority 2014, dated 2019).

Test: in vivo
Conditions: female, mouse, in vivo, ip
Procedure, shortened: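 Female SPF ICR mice received a single ip dose in ethanol/Cremophor EL/saline (5:5:90), with dose lowered after deaths and raised otherwise. MTD defined as dose causing no death, no >10% weight loss versus Day 0 and no significant side effects; daily weights and twice-daily clinical observation over 7-14 days.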

Structure (SMILES): O=C(COc1nc(Cl)c(Cl)cc1Cl)OC[C@H]1O[C@@H](n2cc(Br)c(NC(=O)OCc3ccccc3)nc2=O)C(F)(F)C1O (some centres unmarked) [Compound G10]
- MTD at 7 days: 400 mg/kg

Structure (SMILES): CCCCOC(=O)Nc1nc(=O)n([C@@H]2O[C@H](COC(=O)Cn3cnc([N+](=O)[O-])c3)C(O)C2(F)F)cc1I (some centres unmarked) [Compound G12]
- MTD at 7 days: 400 mg/kg
